According to PubChem BioAssay AID192 (DTP/NCI, 2004):
Where “and” joins values, the source holds several entries; their conditions need not be identical. Equal values may be shown once. Toxic doses and inconclusive results are not listed. The calls were made as follows: active = survival T/C of 150% or more; inactive = T/C below 125% in these data.

System: BDF1 mice, B16 melanoma ip, median survival T/C
Test: NCI In Vivo Anticancer Drug Screen. Data for tumor model B16 Melanoma (intraperitoneal) in B6D2F1 (BDF1) mice
Details: endpoint: median survival time, higher = longer survival
Summary of the method: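 Vehicle-treated animals serve as the reference (C); treated animals (T) are scored for survival or tumor size after tumor transplantation.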

[1] = dose: 100.0 mg/kg/injection, schedule: Q04DX003 (ip), vehicle: saline with Tween-80
[2] = dose: 200.0 mg/kg/injection, schedule: Q04DX003 (ip), vehicle: saline with Tween-80
[3] = dose: 100.0 mg/kg/injection, schedule: Q01DX009 (ip), vehicle: Klucel (hydroxypropylcellulose) (HPC)
[4] = dose: 200.0 mg/kg/injection, schedule: Q01DX009 (ip), vehicle: Klucel (hydroxypropylcellulose) (HPC)
[5] = dose: 400.0 mg/kg/injection, schedule: Q01DX009 (ip), vehicle: Klucel (hydroxypropylcellulose) (HPC)
[6] = dose: 100.0 mg/kg/injection, schedule: Q01DX009 (ip), vehicle: saline with Tween-80
[7] = dose: 200.0 mg/kg/injection, schedule: Q01DX009 (ip), vehicle: saline with Tween-80
[8] = dose: 400.0 mg/kg/injection, schedule: Q01DX009 (ip), vehicle: saline with Tween-80
[9] = dose: 25.0 mg/kg/injection, schedule: Q01DX009 (ip), vehicle: saline with Tween-80
[10] = dose: 50.0 mg/kg/injection, schedule: Q01DX009 (ip), vehicle: saline with Tween-80
[11] = dose: 6.25 mg/kg/injection, schedule: Q01DX009 (ip), vehicle: saline
[12] = dose: 12.5 mg/kg/injection, schedule: Q01DX009 (ip), vehicle: saline
[13] = dose: 25.0 mg/kg/injection, schedule: Q01DX009 (ip), vehicle: saline
[14] = dose: 50.0 mg/kg/injection, schedule: Q01DX009 (ip), vehicle: saline
[15] = dose: 100.0 mg/kg/injection, schedule: Q01DX009 (ip), vehicle: saline
[16] = dose: 6.25 mg/kg/injection, schedule: Q01DX009 (ip), vehicle: saline with Tween-80
[17] = dose: 12.5 mg/kg/injection, schedule: Q01DX009 (ip), vehicle: saline with Tween-80
[18] = dose: 100.0 mg/kg/injection, schedule: Q04DX003 (ip), vehicle: Klucel (hydroxypropylcellulose) (HPC)
[19] = dose: 200.0 mg/kg/injection, schedule: Q04DX003 (ip), vehicle: Klucel (hydroxypropylcellulose) (HPC)
[20] = dose: 400.0 mg/kg/injection, schedule: Q04DX003 (ip), vehicle: Klucel (hydroxypropylcellulose) (HPC)
[21] = dose: 400.0 mg/kg/injection, schedule: Q04DX003 (ip), vehicle: saline with Tween-80

Measured: T/C

OC(Cc1nc(-c2ccccc2)c(-c2ccccc2)s1)(C(F)(F)F)C(F)(F)F
inactive: [1] 105 % of control | [2] 86 % of control

Cc1ccc(N=P(c2ccccc2)(c2ccccc2)c2ccccc2)cc1
inactive: [3] 94 % of control | [4] 108 % of control | [5] 91 % of control

OC(COc1ccccc1)CN1CCCCC1 (stereo not given)
inactive: [6] 112 % of control | [7] 102 % of control | [8] 114 % of control

CC(C)N(CCCC#N)C(C)C
inactive: [9] 91 % of control | [10] 102 % of control | [6] 100 % of control

CC1(C)OC(=O)N(CO)C1=O
inactive: [11] 95 % of control | [12] 94 % of control and 109 % of control | [13] 94 % of control and 115 % of control | [14] 108 % of control and 115 % of control | [15] 114 % of control and 115 % of control | dose: 200.0 mg/kg/injection, schedule: Q01DX009 (ip), vehicle: saline 109 % of control and 117 % of control

Cc1cc(Cl)ccc1NC(=O)COc1ccc(Cl)cc1
inactive: dose: 3.13 mg/kg/injection, schedule: Q01DX009 (ip), vehicle: saline with Tween-80 104 % of control | [16] 98 % of control | [17] 88 % of control and 95 % of control | [9] 93 % of control | [10] 91 % of control

Cc1[nH]c(=O)[nH]c(=O)c1[N+](=O)[O-]
inactive: [3] 100 % of control | [4] 95 % of control | [5] 100 % of control

CCN(CC)CCCC(C)NC/C=C/CNC(C)CCCN(CC)CC (stereo not given)
inactive: [11] 105 % of control | [12] 103 % of control | [13] 102 % of control

O=C(N/N=C\c1ccc(N(CCCl)CCCl)cc1)c1cccnc1
inactive: dose: 100.0 mg/kg/injection, schedule: Q01DX009 (ip), vehicle: gum acacia 91 % of control | dose: 200.0 mg/kg/injection, schedule: Q01DX009 (ip), vehicle: gum acacia 102 % of control | dose: 400.0 mg/kg/injection, schedule: Q01DX009 (ip), vehicle: gum acacia 102 % of control

CCOC(=O)Nc1ccc(OC)cc1
inactive: [18] 95 % of control | [19] 100 % of control | [20] 97 % of control

Cc1c(CNc2ccc(C(=O)NC(CC(=O)O)C(=O)O)cc2)ccc2nc(N)nc(N)c12 (stereo not given)
inactive: dose: 0.02 mg/kg/injection, schedule: Q01DX009 (ip), vehicle: saline with Tween-80 94 % of control | dose: 0.04 mg/kg/injection, schedule: Q01DX009 (ip), vehicle: saline with Tween-80 94 % of control | dose: 0.04 mg/kg/injection, schedule: Q01DX009 (ip), vehicle: saline 103 % of control | dose: 0.09 mg/kg/injection, schedule: Q01DX009 (ip), vehicle: saline with Tween-80 86 % of control | dose: 0.09 mg/kg/injection, schedule: Q01DX009 (ip), vehicle: saline 100 % of control | dose: 0.18 mg/kg/injection, schedule: Q01DX009 (ip), vehicle: saline with Tween-80 97 % of control | dose: 0.19 mg/kg/injection, schedule: Q01DX009 (ip), vehicle: saline 111 % of control | dose: 0.78 mg/kg/injection, schedule: Q01DX009 (ip), vehicle: saline with Tween-80 118 % of control

C[Si](C)(C)Cc1ccccc1
inactive: [3] 114 % of control | [4] 109 % of control

COC(OC(CO)C(O)S(=O)(=O)O)C(O)S(=O)(=O)O (stereo not given)
inactive: [12] 104 % of control | [13] 107 % of control | [14] 111 % of control | [15] 119 % of control

CC1CCC2(CC1)CCN(CCCN(C)C)CC2
inactive: [14] 99 % of control | [15] 110 % of control

O=C1C(Cl)=C(N=Nc2c(Cl)c(O)c3ccccc3c2O)C(=O)c2ccccc21
inactive: [12] 89 % of control | [13] 86 % of control

COB1OB(OC)OB(OC)O1
inactive: [10] 103 % of control | [6] 104 % of control | [1] 105 % of control | [7] 102 % of control | [2] 112 % of control | [8] 98 % of control | [21] 110 % of control

Cc1ccc2c(ccc3c[n+]4ccccc4c(C)c32)c1
inactive: dose: 1.25 mg/kg/injection, schedule: Q01DX009 (ip), vehicle: saline with Tween-80 95 % of control | dose: 2.5 mg/kg/injection, schedule: Q01DX009 (ip), vehicle: saline with Tween-80 95 % of control and 102 % of control | dose: 5.0 mg/kg/injection, schedule: Q01DX009 (ip), vehicle: saline with Tween-80 90 % of control and 102 % of control

CC12NC(=O)NC1(C)NC(=O)N2 (stereo not given)
inactive: [1] 100 % of control

CCC(C)C1NC(=O)C(NC(=O)c2c3nc4c(C(=O)NC5C(=O)NC(C(C)CC)C(=O)N6CCCC6C(=O)N(C)CC(=O)N(C)C(C(C)C)C(=O)OC5C)ccc(C)c4oc-3c(C)c(=O)c2Cl)C(C)OC(=O)C(C(C)C)N(C)C(=O)CN(C)C(=O)C2CCCN2C1=O (stereo not given)
inactive: dose: 1.25 mg/kg/injection, schedule: Q01DX009 (ip), vehicle: Klucel (hydroxypropylcellulose) (HPC) 117 % of control
active: dose: 10.0 mg/kg/injection, schedule: Q01DX009 (ip), vehicle: Klucel (hydroxypropylcellulose) (HPC) 164 % of control

Oc1c(CNCCCN2CCCC2)cc(Cl)c2cccnc12
inactive: [12] 94 % of control and 95 % of control and 106 % of control | [13] 93 % of control and 98 % of control and 102 % of control | [14] 94 % of control and 97 % of control and 98 % of control | [15] 103 % of control and 108 % of control and 109 % of control

C=CCN1/C(=C/C=C\c2sc3ccccc3[n+]2CC=C)Sc2ccccc21
inactive: dose: 0.06 mg/kg/injection, schedule: Q01DX009 (ip), vehicle: saline with Tween-80 100 % of control | dose: 0.13 mg/kg/injection, schedule: Q01DX009 (ip), vehicle: saline with Tween-80 97 % of control | dose: 0.25 mg/kg/injection, schedule: Q01DX009 (ip), vehicle: saline with Tween-80 97 % of control | dose: 0.5 mg/kg/injection, schedule: Q01DX009 (ip), vehicle: saline with Tween-80 95 % of control

NC1CC[N-]CC1.NC1CC[N-]CC1.NC1CC[N-]CC1.NC1CC[N-]CC1.[Cl][Rh][Cl]
inactive: [16] 103 % of control | [17] 101 % of control | [9] 93 % of control

COC(=O)C(C)CC(C)(C=O)OC (stereo not given)
inactive: [6] 97 % of control | [7] 100 % of control | [8] 90 % of control

COC(=O)C1C2OC(C(Br)C2Br)C1C(=O)OC (stereo not given)
inactive: [18] 103 % of control | [19] 105 % of control | [20] 101 % of control

CCC(CC)N=C(N)N
inactive: [13] 101 % of control | [14] 98 % of control | [15] 112 % of control

CCC[N+](CCC)=c1ccc2nc3c(C)cc(N(CC)CC)cc3sc-2c1
inactive: dose: 0.15 mg/kg/injection, schedule: Q01DX009 (ip), vehicle: saline 102 % of control | dose: 0.3 mg/kg/injection, schedule: Q01DX009 (ip), vehicle: saline 102 % of control | dose: 0.6 mg/kg/injection, schedule: Q01DX009 (ip), vehicle: saline with Tween-80 92 % of control | dose: 0.6 mg/kg/injection, schedule: Q01DX009 (ip), vehicle: saline 102 % of control | dose: 1.2 mg/kg/injection, schedule: Q01DX009 (ip), vehicle: saline 105 % of control

CCOC(=O)C(=CN1CCCCC1)C(=O)OCC
inactive: [6] 99 % of control | [1] 95 % of control | [7] 100 % of control | [2] 97 % of control | [21] 95 % of control
